Where two headings read alike, the source gives them in different places.
Legend:
Assay type in all cases: binding
[1] = target: T1, HeLa cell extract proteins (Homo sapiens, UniProt P33992)
T1 construct: endogenous in cells; host or cells: HeLa cell extract
T1 sequence (P33992 1-734): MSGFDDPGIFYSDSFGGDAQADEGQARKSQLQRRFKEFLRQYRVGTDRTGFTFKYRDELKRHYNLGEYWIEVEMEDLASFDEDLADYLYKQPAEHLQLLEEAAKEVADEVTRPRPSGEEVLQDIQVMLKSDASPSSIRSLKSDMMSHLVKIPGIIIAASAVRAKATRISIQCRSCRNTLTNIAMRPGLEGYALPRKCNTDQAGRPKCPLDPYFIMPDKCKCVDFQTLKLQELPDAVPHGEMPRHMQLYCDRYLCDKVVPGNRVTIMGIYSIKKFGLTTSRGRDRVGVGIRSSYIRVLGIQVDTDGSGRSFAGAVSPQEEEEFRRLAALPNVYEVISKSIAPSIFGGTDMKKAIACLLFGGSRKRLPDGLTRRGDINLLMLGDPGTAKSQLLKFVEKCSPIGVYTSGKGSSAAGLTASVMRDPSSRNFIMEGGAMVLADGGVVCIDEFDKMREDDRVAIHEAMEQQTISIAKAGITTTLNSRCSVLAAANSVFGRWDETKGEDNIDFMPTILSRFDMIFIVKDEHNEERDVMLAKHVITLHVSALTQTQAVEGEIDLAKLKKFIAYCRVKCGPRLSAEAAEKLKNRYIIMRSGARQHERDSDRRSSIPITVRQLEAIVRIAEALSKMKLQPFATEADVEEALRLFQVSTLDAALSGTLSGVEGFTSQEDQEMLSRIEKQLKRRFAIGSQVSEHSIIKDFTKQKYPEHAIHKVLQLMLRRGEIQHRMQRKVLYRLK

[2] = target: T2, HeLa cell extract proteins (Homo sapiens, UniProt P17858)
T2 construct: endogenous in cells; host or cells: HeLa cell extract
T2 sequence (P17858 1-780): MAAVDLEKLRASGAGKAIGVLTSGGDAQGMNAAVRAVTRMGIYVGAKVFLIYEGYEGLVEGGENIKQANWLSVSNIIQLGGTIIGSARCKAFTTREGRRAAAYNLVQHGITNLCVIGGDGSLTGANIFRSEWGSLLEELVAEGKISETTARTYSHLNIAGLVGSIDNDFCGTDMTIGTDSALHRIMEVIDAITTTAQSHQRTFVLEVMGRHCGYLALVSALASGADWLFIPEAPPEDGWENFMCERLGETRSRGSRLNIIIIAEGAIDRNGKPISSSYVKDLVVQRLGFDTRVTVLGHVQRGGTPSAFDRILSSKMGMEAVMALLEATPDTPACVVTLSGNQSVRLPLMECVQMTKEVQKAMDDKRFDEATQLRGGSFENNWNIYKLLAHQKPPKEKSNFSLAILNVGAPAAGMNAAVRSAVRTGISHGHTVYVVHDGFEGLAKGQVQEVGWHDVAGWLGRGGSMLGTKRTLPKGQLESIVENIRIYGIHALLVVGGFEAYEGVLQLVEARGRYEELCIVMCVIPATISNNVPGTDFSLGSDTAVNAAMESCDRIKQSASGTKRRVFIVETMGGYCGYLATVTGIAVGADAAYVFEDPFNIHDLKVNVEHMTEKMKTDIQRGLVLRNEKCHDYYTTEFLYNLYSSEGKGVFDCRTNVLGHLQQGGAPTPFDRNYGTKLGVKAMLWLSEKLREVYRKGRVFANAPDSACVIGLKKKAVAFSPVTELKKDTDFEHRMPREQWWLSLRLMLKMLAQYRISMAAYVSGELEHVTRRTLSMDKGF

[3] = target: T3, HeLa cell extract proteins (Homo sapiens, UniProt P16615)
T3 construct: endogenous in cells; host or cells: HeLa cell extract

[4] = target: T4, HeLa cell extract proteins (Homo sapiens, UniProt Q9Y679)
T4 construct: endogenous in cells; host or cells: HeLa cell extract
T4 sequence (Q9Y679 1-410): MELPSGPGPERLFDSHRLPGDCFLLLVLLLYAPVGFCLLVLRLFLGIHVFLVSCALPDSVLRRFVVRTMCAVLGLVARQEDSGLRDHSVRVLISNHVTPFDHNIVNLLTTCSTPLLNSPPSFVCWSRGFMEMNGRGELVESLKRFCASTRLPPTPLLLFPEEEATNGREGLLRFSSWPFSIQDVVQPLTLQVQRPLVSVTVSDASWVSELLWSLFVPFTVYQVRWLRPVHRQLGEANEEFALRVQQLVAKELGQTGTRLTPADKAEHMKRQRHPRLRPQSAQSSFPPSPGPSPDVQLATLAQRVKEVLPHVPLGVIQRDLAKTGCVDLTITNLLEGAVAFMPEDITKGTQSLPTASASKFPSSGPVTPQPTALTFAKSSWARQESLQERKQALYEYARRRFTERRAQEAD

[5] = target: T5, HeLa cell extract proteins (Homo sapiens, UniProt P60174)
T5 construct: endogenous in cells; host or cells: HeLa cell extract

[6] = target: T6, HeLa cell extract proteins (Homo sapiens, UniProt P08559)
T6 construct: endogenous in cells; host or cells: HeLa cell extract
T6 sequence (P08559 30-390): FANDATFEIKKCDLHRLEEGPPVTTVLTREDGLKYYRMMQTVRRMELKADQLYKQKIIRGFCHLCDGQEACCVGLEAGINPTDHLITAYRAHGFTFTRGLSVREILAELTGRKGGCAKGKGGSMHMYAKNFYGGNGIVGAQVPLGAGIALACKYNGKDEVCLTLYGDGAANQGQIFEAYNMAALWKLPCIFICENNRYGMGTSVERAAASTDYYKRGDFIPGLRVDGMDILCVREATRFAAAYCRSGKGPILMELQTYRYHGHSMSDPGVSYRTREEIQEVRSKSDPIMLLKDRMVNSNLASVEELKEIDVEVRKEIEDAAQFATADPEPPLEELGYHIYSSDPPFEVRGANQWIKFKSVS

[7] = HeLa, protein TPI1 (ISOFORM 1 OF TRIOSEPHOSPHATE ISOMERASE.)

T5 sequence (P60174 whole entry): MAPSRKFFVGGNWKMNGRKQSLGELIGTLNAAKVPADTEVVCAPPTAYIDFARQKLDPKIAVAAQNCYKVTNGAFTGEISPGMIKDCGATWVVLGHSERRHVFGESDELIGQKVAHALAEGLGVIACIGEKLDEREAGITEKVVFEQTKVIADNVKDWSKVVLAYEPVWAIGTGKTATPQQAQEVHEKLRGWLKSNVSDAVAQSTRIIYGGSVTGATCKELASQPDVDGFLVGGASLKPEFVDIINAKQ
T3 sequence (P16615 whole entry): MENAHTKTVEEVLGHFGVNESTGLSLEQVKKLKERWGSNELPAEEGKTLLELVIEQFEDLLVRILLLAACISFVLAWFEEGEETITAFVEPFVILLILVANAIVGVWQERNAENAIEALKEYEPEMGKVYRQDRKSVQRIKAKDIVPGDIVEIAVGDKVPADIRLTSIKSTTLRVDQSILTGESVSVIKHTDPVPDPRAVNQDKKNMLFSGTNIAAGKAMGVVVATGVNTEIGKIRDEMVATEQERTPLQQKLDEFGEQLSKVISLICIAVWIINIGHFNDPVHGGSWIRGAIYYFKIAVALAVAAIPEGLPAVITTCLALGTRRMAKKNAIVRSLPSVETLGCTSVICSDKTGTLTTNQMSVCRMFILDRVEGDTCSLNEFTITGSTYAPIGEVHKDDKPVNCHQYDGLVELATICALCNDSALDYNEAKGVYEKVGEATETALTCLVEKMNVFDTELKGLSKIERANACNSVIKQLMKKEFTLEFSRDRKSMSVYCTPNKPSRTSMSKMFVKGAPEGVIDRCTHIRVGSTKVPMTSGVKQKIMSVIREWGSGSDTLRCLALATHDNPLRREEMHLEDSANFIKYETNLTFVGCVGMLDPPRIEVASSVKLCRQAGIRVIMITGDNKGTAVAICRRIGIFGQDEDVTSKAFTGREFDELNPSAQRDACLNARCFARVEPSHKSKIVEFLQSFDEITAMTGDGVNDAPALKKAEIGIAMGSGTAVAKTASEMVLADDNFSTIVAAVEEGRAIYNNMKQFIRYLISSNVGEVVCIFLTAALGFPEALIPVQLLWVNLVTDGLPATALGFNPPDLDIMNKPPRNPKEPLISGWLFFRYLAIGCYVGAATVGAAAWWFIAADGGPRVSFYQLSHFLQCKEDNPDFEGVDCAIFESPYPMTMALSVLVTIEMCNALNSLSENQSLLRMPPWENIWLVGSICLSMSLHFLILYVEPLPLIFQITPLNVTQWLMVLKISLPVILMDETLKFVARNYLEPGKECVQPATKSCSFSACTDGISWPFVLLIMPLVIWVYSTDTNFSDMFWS

Nc1nc2c(c(=O)[nH]1)N(C=O)C(CNc1ccc(C(=O)N[C@@H](CCC(=O)O)C(=O)O)cc1)CN2 (stereo partly drawn) [LEU, leucovorin]
fold changes relative to vehicle control ([1]; HeLa, protein MCM5): 0.94 | fold changes relative to vehicle control ([2]; HeLa, protein PFKL): 0.96 | fold changes relative to vehicle control ([3]; HeLa, protein ATP2A2): 1 | fold changes relative to vehicle control ([4]; HeLa, protein AUP1): 0.83 | fold changes relative to vehicle control ([5]; HeLa, protein TPI1): 1.03 | fold changes relative to vehicle control ([6]; HeLa, captured protein PDHA1): 1.06

Nc1nc2[nH]cc(CCc3ccc(C(=O)N[C@@H](CCC(=O)O)C(=O)O)cc3)c2c(=O)[nH]1 [PTX, pemetrexed]
fold changes relative to vehicle control [1]: 1.12 | fold changes relative to vehicle control [2]: 0.89 | fold changes relative to vehicle control [3]: 1.03 | fold changes relative to vehicle control [4]: 0.89 | fold changes relative to vehicle control [5]: 1.22 | fold changes relative to vehicle control [6]: 1.04

CCCCCCOc1ccc(Cc2cnc(N)nc2N)cc1 [compound 1]
fold changes relative to vehicle control ([1]; protein MCM5, HeLa): 1.04 | fold changes relative to vehicle control ([2]; captured protein PFKL, HeLa): 0.92 | fold changes relative to vehicle control ([3]; HeLa, protein ATP2A2): 1.05 | fold changes relative to vehicle control ([4]; captured protein AUP1, HeLa): 0.98 | fold changes relative to vehicle control [5, 7]: 1.44 fold | fold changes relative to vehicle control ([6]; HeLa, protein PDHA1): 1.02

CCCCCCOc1cccc(Cc2cnc(N)nc2N)c1 [compound 2]
fold changes relative to vehicle control ([1]; protein MCM5, HeLa): 1.41 | fold changes relative to vehicle control ([2]; captured protein PFKL, HeLa): 0.96 | fold changes relative to vehicle control ([3]; HeLa, protein ATP2A2): 1.12 | fold changes relative to vehicle control ([4]; captured protein AUP1, HeLa): 1.25 | fold changes relative to vehicle control [5, 7]: 2.37 fold | fold changes relative to vehicle control ([6]; HeLa, protein PDHA1): 0.4

Nc1nc2cccc(-c3ccccc3)c2n1Cc1ccc(Cl)c(Cl)c1 [compound 3]
fold changes relative to vehicle control ([1]; protein MCM5, HeLa): 0.93 | fold changes relative to vehicle control ([2]; captured protein PFKL, HeLa): 1.07 | fold changes relative to vehicle control ([3]; HeLa, protein ATP2A2): 0.98 | fold changes relative to vehicle control ([4]; captured protein AUP1, HeLa): 0.9 | fold changes relative to vehicle control ([5]; HeLa, protein TPI1 (ISOFORM 1 OF TRIOS[…].)): 0.88 fold | fold changes relative to vehicle control ([6]; HeLa, protein PDHA1): 1.07

NCCOCCOCC(=O)Nc1nc2ncc(CNc3ccc(C(=O)NC(CCC(=O)O)C(=O)O)cc3)nc2c(=O)[nH]1 (stereo not drawn) [compound 6]
fold changes relative to vehicle control ([1]; HeLa, protein MCM5): 1.03 | fold changes relative to vehicle control ([2]; HeLa, protein PFKL): 0.98 | fold changes relative to vehicle control ([3]; HeLa, protein ATP2A2): 1.03 | fold changes relative to vehicle control ([4]; HeLa, protein AUP1): 0.92 | fold changes relative to vehicle control ([5]; HeLa, protein TPI1): 1.41 | fold changes relative to vehicle control ([6]; HeLa, captured protein PDHA1): 1

NCCCNc1ccc(C(=O)NC(CCC(=O)O)C(=O)O)cc1 (stereo not drawn) [compound 7]
fold changes relative to vehicle control ([1]; HeLa, protein MCM5): 0.98 | fold changes relative to vehicle control ([2]; HeLa, protein PFKL): 1.07 | fold changes relative to vehicle control ([3]; HeLa, protein ATP2A2): 0.99 | fold changes relative to vehicle control ([4]; HeLa, protein AUP1): 0.9 | fold changes relative to vehicle control ([5]; HeLa, protein TPI1): 1 | fold changes relative to vehicle control ([6]; HeLa, captured protein PDHA1): 0.99

Source: PMC6199744, “Development of Chemical Proteomics for the Folateome and Analysis of the Kinetoplastid Folateome” (ACS Infectious Diseases, 2018)
